Measurements taken from PubChem BioAssay AID330 (DTP/NCI, 2004).
Several values for one entry are separate records, joined by “and”; a condition that tells them apart may be missing. Equal values may be shown once. Toxic doses and inconclusive results are not listed. The calls were made as follows: active = survival T/C of 150% or more; inactive = T/C below 125% in these data.

System: P388 leukemia ip, CD2F1 mice, survival T/C
Assay: NCI In Vivo Anticancer Drug Screen. Data for tumor model P388 Leukemia (intraperitoneal) in CD2F1 (CDF1) mice
Conditions: endpoint: median survival time, higher = longer survival
Procedure, shortened: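 Mice carrying the transplanted tumor received test compound or vehicle. Survival was recorded in each group, and the value is the treated-group measurement divided by that of the vehicle-treated control group.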

[1] = dose: 50.0 mg/kg/injection, schedule: Q01DX009 (ip), vehicle: Klucel (hydroxypropylcellulose) (HPC)
[2] = dose: 400.0 mg/kg/injection, schedule: Q01DX009 (ip), vehicle: Klucel (hydroxypropylcellulose) (HPC)
[3] = dose: 50.0 mg/kg/injection, schedule: Q01DX005 (ip), vehicle: Klucel (hydroxypropylcellulose) (HPC)
[4] = dose: 100.0 mg/kg/injection, schedule: Q01DX005 (ip), vehicle: Klucel (hydroxypropylcellulose) (HPC)
[5] = dose: 100.0 mg/kg/injection, schedule: Q04DX002 (ip), vehicle: Klucel (hydroxypropylcellulose) (HPC)
[6] = dose: 50.0 mg/kg/injection, schedule: Q01DX009 (ip), vehicle: saline
[7] = dose: 100.0 mg/kg/injection, schedule: Q01DX009 (ip), vehicle: saline with Tween-80
[8] = dose: 100.0 mg/kg/injection, schedule: Q01DX009 (ip), vehicle: saline
[9] = dose: 200.0 mg/kg/injection, schedule: Q01DX009 (ip), vehicle: saline with Tween-80
[10] = dose: 200.0 mg/kg/injection, schedule: Q01DX009 (ip), vehicle: saline
[11] = dose: 6.25 mg/kg/injection, schedule: Q01DX009 (ip), vehicle: saline with Tween-80
[12] = dose: 12.5 mg/kg/injection, schedule: Q01DX009 (ip), vehicle: saline with Tween-80

Measured: T/C

[Cl][Pt+2][Cl].[NH-]c1ccc([N+](=O)[O-])cc1[NH-]
inactive: dose: 3.12 mg/kg/injection, schedule: Q04DX002 (ip), vehicle: saline with Tween-80 100 % of control | dose: 6.25 mg/kg/injection, schedule: Q04DX002 (ip), vehicle: saline with Tween-80 110 % of control and 113 % of control | dose: 12.5 mg/kg/injection, schedule: Q04DX002 (ip), vehicle: saline with Tween-80 115 % of control and 118 % of control | dose: 25.0 mg/kg/injection, schedule: Q04DX002 (ip), vehicle: saline with Tween-80 123 % of control | dose: 50.0 mg/kg/injection, schedule: Q04DX002 (ip), vehicle: saline with Tween-80 117 % of control

O=c1c2cc(O)ccc2oc2cc(O)cc(O)c12
inactive: dose: 10.0 mg/kg/injection, schedule: Q01DX009 (ip), vehicle: saline 104 % of control | dose: 20.0 mg/kg/injection, schedule: Q01DX009 (ip), vehicle: saline 111 % of control | dose: 40.0 mg/kg/injection, schedule: Q01DX009 (ip), vehicle: saline 111 % of control | dose: 80.0 mg/kg/injection, schedule: Q01DX009 (ip), vehicle: saline 105 % of control

CCON1CCC(OC(=O)CC)(c2ccccc2)C(C)C1 (stereo not drawn)
inactive: dose: 100.0 mg/kg/injection, schedule: Q01DX001 (ip), vehicle: saline 111 % of control | dose: 200.0 mg/kg/injection, schedule: Q01DX001 (ip), vehicle: saline 98 % of control

CS(=O)(=O)NC(=O)NC(=S)c1ccc(Br)cc1
inactive: dose: 100.0 mg/kg/injection, schedule: Q01DX001 (ip), vehicle: saline with Tween-80 103 % of control | dose: 200.0 mg/kg/injection, schedule: Q01DX001 (ip), vehicle: saline with Tween-80 101 % of control | dose: 400.0 mg/kg/injection, schedule: Q01DX001 (ip), vehicle: saline with Tween-80 107 % of control

O=C(Nn1c(=S)[nH]c2ccccc2c1=O)c1ccc([N+](=O)[O-])cc1
inactive: dose: 60.0 mg/kg/injection, schedule: Q01DX005 (ip), vehicle: Klucel + Tween-80 93 % of control | dose: 120.0 mg/kg/injection, schedule: Q01DX005 (ip), vehicle: Klucel + Tween-80 87 % of control

CCC(O)(c1ccccc1)C(O)c1ccccc1 (stereo not drawn)
inactive: dose: 25.0 mg/kg/injection, schedule: Q01DX009 (ip), vehicle: Klucel (hydroxypropylcellulose) (HPC) 98 % of control | [1] 98 % of control | dose: 50.0 mg/kg/injection, schedule: Q01DX009 (ip), vehicle: saline + alcohol 102 % of control and 124 % of control | dose: 100.0 mg/kg/injection, schedule: Q01DX009 (ip), vehicle: Klucel (hydroxypropylcellulose) (HPC) 97 % of control | dose: 100.0 mg/kg/injection, schedule: Q01DX009 (ip), vehicle: saline + alcohol 99 % of control and 123 % of control | dose: 200.0 mg/kg/injection, schedule: Q01DX009 (ip), vehicle: Klucel (hydroxypropylcellulose) (HPC) 88 % of control | dose: 200.0 mg/kg/injection, schedule: Q01DX009 (ip), vehicle: saline + alcohol 98 % of control | [2] 96 % of control

COc1cccc2c1OC(=O)C(S(=O)(=O)c1ccccc1)C2 (stereo not drawn)
inactive: dose: 50.0 mg/kg/injection, schedule: Q01DX005 (ip), vehicle: saline with Tween-80 97 % of control | dose: 100.0 mg/kg/injection, schedule: Q01DX005 (ip), vehicle: saline with Tween-80 104 % of control | dose: 200.0 mg/kg/injection, schedule: Q01DX005 (ip), vehicle: saline with Tween-80 101 % of control

CC(=O)Nc1nc(CC(N)C(=O)O)c[se]1 (stereo not drawn)
inactive: [3] 97 % of control | [4] 97 % of control | dose: 200.0 mg/kg/injection, schedule: Q01DX005 (ip), vehicle: Klucel (hydroxypropylcellulose) (HPC) 97 % of control

CCCCCN(CCCCC)c1ccc(/C=C/c2ccnc3ccccc23)cc1
inactive: [1] 98 % of control | [2] 104 % of control

C/C(=N\NC(=O)c1ccccc1)C(=O)O
inactive: [5] 106 % of control | dose: 200.0 mg/kg/injection, schedule: Q04DX002 (ip), vehicle: Klucel (hydroxypropylcellulose) (HPC) 100 % of control | dose: 400.0 mg/kg/injection, schedule: Q04DX002 (ip), vehicle: Klucel (hydroxypropylcellulose) (HPC) 99 % of control

CCOC(=O)C(CNc1ccc(OCc2ccccc2)cc1)NC(=O)c1ccccc1 (stereo not drawn)
inactive: dose: 50.0 mg/kg/injection, schedule: Q01DX009 (ip), vehicle: saline with Tween-80 105 % of control | [6] 96 % of control | [7] 100 % of control | [8] 88 % of control | [9] 87 % of control | [10] 88 % of control | dose: 400.0 mg/kg/injection, schedule: Q01DX009 (ip), vehicle: saline with Tween-80 91 % of control

CCCCCCCCN1C(=O)c2ccccc2C1=O
inactive: dose: 25.0 mg/kg/injection, schedule: Q01DX009 (ip), vehicle: other 109 % of control | dose: 50.0 mg/kg/injection, schedule: Q01DX009 (ip), vehicle: other 103 % of control | dose: 100.0 mg/kg/injection, schedule: Q01DX009 (ip), vehicle: other 109 % of control | dose: 200.0 mg/kg/injection, schedule: Q01DX009 (ip), vehicle: other 98 % of control

S=C([S][Sn]([c]1ccccc1)([c]1ccccc1)[c]1ccccc1)N1CCOCC1
inactive: dose: 1.56 mg/kg/injection, schedule: Q01DX009 (ip), vehicle: saline with Tween-80 100 % of control | dose: 3.13 mg/kg/injection, schedule: Q01DX009 (ip), vehicle: saline with Tween-80 100 % of control and 103 % of control and 109 % of control | [11] 107 % of control and 108 % of control | [12] 105 % of control

CC(/C=C(\C)N1CCCC1)=[N+]1CCCC1
inactive: dose: 0.12 mg/kg/injection, schedule: Q01DX009 (ip), vehicle: saline 111 % of control | dose: 0.25 mg/kg/injection, schedule: Q01DX009 (ip), vehicle: saline 111 % of control | dose: 0.5 mg/kg/injection, schedule: Q01DX009 (ip), vehicle: saline 108 % of control | dose: 1.0 mg/kg/injection, schedule: Q01DX009 (ip), vehicle: saline 109 % of control | dose: 2.0 mg/kg/injection, schedule: Q01DX009 (ip), vehicle: saline 109 % of control

CCCN(CCC)CC(O)c1cc2cc(C(F)(F)F)cc(C(F)(F)F)c2c2cc(Cl)c(Cl)cc12 (stereo not drawn)
inactive: [11] 102 % of control | [12] 101 % of control | dose: 25.0 mg/kg/injection, schedule: Q01DX009 (ip), vehicle: saline with Tween-80 94 % of control | [7] 91 % of control | [9] 91 % of control

Nn1c(-c2nn[nH]n2)nnc1-c1nn[nH]n1
inactive: dose: 25.0 mg/kg/injection, schedule: Q01DX005 (ip), vehicle: Klucel (hydroxypropylcellulose) (HPC) 100 % of control | [3] 100 % of control | [4] 95 % of control

O=C(O)CCCC(=O)c1ccccc1
inactive: dose: 25.0 mg/kg/injection, schedule: Q01DX009 (ip), vehicle: saline 105 % of control | [6] 100 % of control | [8] 101 % of control | [10] 108 % of control

Nc1ccc(S(=O)(=O)n2c(=O)oc3cc(Br)ccc32)cc1
inactive: dose: 25.0 mg/kg/injection, schedule: Q04DX002 (ip), vehicle: Klucel (hydroxypropylcellulose) (HPC) 99 % of control | dose: 50.0 mg/kg/injection, schedule: Q04DX002 (ip), vehicle: Klucel (hydroxypropylcellulose) (HPC) 99 % of control | [5] 100 % of control and 93 % of control

CCCC(=O)NNC(=O)c1ccccn1
inactive: dose: 25.0 mg/kg/injection, schedule: Q01DX009 (ip), vehicle: saline sonified 90 % of control | dose: 50.0 mg/kg/injection, schedule: Q01DX009 (ip), vehicle: saline sonified 95 % of control | dose: 100.0 mg/kg/injection, schedule: Q01DX009 (ip), vehicle: saline sonified 100 % of control
